Measurements published in PubChem BioAssay AID1963832 (Molecular Pharmacology Branch, DTP, NCI, 2024).

System: 885724-159-R-J1-PDC complex spheroid viability
Assay: Anticancer human tumor 885724-159-R-J1-PDC patient-derived pancreatic adenocarcinoma cell line growth inhibition [POLQ]
Conditions: for IC50: curve of first compound; for viability, T/C: stronger effect = lower value
Outline: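 Growth inhibition in 3D: complex spheroids (tumor PDC, HUVEC, MSC) treated with POLQ inhibitor combinations; where Cmax unknown, highest tested concentration 10 microM, except SN-38 at 1 microM.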

[1] = second compound 0.0316 µM, first compound 0.0316 µM
[2] = second compound 0.0316 µM, first compound 0.1 µM
[3] = second compound 0.0316 µM, first compound 0.316 µM
[4] = second compound 0.0316 µM, first compound 1 µM
[5] = second compound 0.0316 µM, first compound 3.16 µM
[6] = second compound 0.0316 µM, first compound 10 µM
[7] = second compound 0.1 µM, first compound 0.0316 µM
[8] = second compound 0.1 µM, first compound 0.1 µM
[9] = second compound 0.1 µM, first compound 0.316 µM
[10] = second compound 0.1 µM, first compound 1 µM
[11] = second compound 0.1 µM, first compound 3.16 µM
[12] = second compound 0.1 µM, first compound 10 µM
[13] = second compound 0.316 µM, first compound 0.0316 µM
[14] = second compound 0.316 µM, first compound 0.1 µM
[15] = second compound 0.316 µM, first compound 0.316 µM
[16] = second compound 0.316 µM, first compound 1 µM
[17] = second compound 0.316 µM, first compound 3.16 µM
[18] = second compound 0.316 µM, first compound 10 µM
[19] = second compound 1 µM, first compound 0.0316 µM
[20] = second compound 1 µM, first compound 0.1 µM
[21] = second compound 1 µM, first compound 0.316 µM
[22] = second compound 1 µM, first compound 1 µM
[23] = second compound 1 µM, first compound 3.16 µM
[24] = second compound 1 µM, first compound 10 µM
[25] = second compound 3.16 µM, first compound 0.0316 µM
[26] = second compound 3.16 µM, first compound 0.1 µM
[27] = second compound 3.16 µM, first compound 0.316 µM
[28] = second compound 3.16 µM, first compound 1 µM
[29] = second compound 3.16 µM, first compound 3.16 µM
[30] = second compound 3.16 µM, first compound 10 µM
[31] = second compound 10 µM, first compound 0.0316 µM
[32] = second compound 10 µM, first compound 0.1 µM
[33] = second compound 10 µM, first compound 0.316 µM
[34] = second compound 10 µM, first compound 1 µM
[35] = second compound 10 µM, first compound 3.16 µM
[36] = second compound 10 µM, first compound 10 µM
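Further: spheroids exposed to compounds for 7 days.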

`C=CC(=O)N1CCN(c2nc(=O)n(-c3c(C)ccnc3C(C)C)c3nc(-c4c(O)cccc4F)c(F)cc23)C(C)C1` (centres undefined) + Nc1ccc(C#CCN(C(=O)Cc2ncc(C(F)(F)F)cc2C(F)(F)F)c2ccc(F)cc2)nn1 showed an IC50 (second compound 0.0316 µM) greater than 10000 nM, an IC50 (second compound 0.1 µM) greater than 10000 nM and an IC50 (second compound 0.316 µM) greater than 10000 nM. It also gave an IC50 (second compound 1 µM) greater than 10000 nM, an IC50 (second compound 3.16 µM) greater than 10000 nM and an IC50 (second compound 10 µM) greater than 10000 nM. For the same compound, the viability, T/C [1] was 96.3%, the viability, T/C [2] was 86% and the viability, T/C [3] was 101%. The viability, T/C [4] was 106%, the viability, T/C [5] was 103% and the viability, T/C [6] was 98.6%. It also gave a viability, T/C [7] of 108%, a viability, T/C [8] of 112% and a viability, T/C [9] of 110%. For the same compound, the viability, T/C [10] was 102%, the viability, T/C [11] was 122% and the viability, T/C [12] was 94%. It also gave a viability, T/C [13] of 96.5%, a viability, T/C [14] of 102% and a viability, T/C [15] of 105%. It also gave a viability, T/C [16] of 102%, a viability, T/C [17] of 110% and a viability, T/C [18] of 90.4%. The viability, T/C [19] was 96.4%, the viability, T/C [20] was 87.5% and the viability, T/C [21] was 93.2%. For the same compound, the viability, T/C [22] was 109%, the viability, T/C [23] was 110% and the viability, T/C [24] was 97.3%. It also gave a viability, T/C [25] of 96.9%, a viability, T/C [26] of 92.9% and a viability, T/C [27] of 98.4%. It also gave a viability, T/C [28] of 100%, a viability, T/C [29] of 117% and a viability, T/C [30] of 83.6%. It also gave a viability, T/C [31] of 95.7%, a viability, T/C [32] of 104% and a viability, T/C [33] of 98.6%. The viability, T/C [34] was 111%, the viability, T/C [35] was 97.5% and the viability, T/C [36] was 91.1%.

For `CC1COCCN1c1cc(C2(O)CC3CCC(C2)O3)c2cnn(-c3ccn[nH]3)c2n1` (centres undefined) + Nc1ccc(C#CCN(C(=O)Cc2ncc(C(F)(F)F)cc2C(F)(F)F)c2ccc(F)cc2)nn1, the IC50 (second compound 0.0316 µM) was 321 nM, the IC50 (second compound 0.1 µM) was 237 nM and the IC50 (second compound 0.316 µM) was 177 nM. For the same compound, the IC50 (second compound 1 µM) was 237 nM, the IC50 (second compound 3.16 µM) was 202 nM and the IC50 (second compound 10 µM) was 236 nM. The viability, T/C [1] was 72.7%, the viability, T/C [2] was 54.7% and the viability, T/C [3] was 50.8%. It also gave a viability, T/C [4] of 42.6%, a viability, T/C [5] of 36.3% and a viability, T/C [6] of 26.8%. The viability, T/C [7] was 77.8%, the viability, T/C [8] was 58.3% and the viability, T/C [9] was 46.2%. For the same compound, the viability, T/C [10] was 40.6%, the viability, T/C [11] was 37.4% and the viability, T/C [12] was 31.4%. For the same compound, the viability, T/C [13] was 72.4%, the viability, T/C [14] was 52.5% and the viability, T/C [15] was 45.2%. For the same compound, the viability, T/C [16] was 38.9%, the viability, T/C [17] was 39.9% and the viability, T/C [18] was 28.4%. It also gave a viability, T/C [19] of 65.2%, a viability, T/C [20] of 51.5% and a viability, T/C [21] of 47.7%. For the same compound, the viability, T/C [22] was 43.6%, the viability, T/C [23] was 35.9% and the viability, T/C [24] was 27%. It also gave a viability, T/C [25] of 67%, a viability, T/C [26] of 53% and a viability, T/C [27] of 45.4%. It also gave a viability, T/C [28] of 43.5%, a viability, T/C [29] of 35.3% and a viability, T/C [30] of 30.4%. For the same compound, the viability, T/C [31] was 62.9%, the viability, T/C [32] was 53% and the viability, T/C [33] was 49.4%. For the same compound, the viability, T/C [34] was 41.8%, the viability, T/C [35] was 37% and the viability, T/C [36] was 30.5%.
